Here are results for twelve molecules from BindingDB's records for doi:10.1016/s0968-0896(01)00282-6 (Purdue University, 2002).

This test concerns the target T1, Gag-Pol polyprotein [588-1027]/[588-1147] (Human immunodeficiency virus 1, UniProt P04585).
T1 construct: 588-1027; 588-1147
In words: HIV-1 RT Assay. Conditions: pH 7.9.

Regarding `COC(=O)CCCC=C(c1ccc(OC)c(C(=O)OC)c1)c1ccc(OC)c(C(=O)OC)c1` [methyl 2-methoxy-5-{6-methoxy-1-[4-methoxy-3-(methoxycarbonyl)phenyl]-6-oxohex-1-en-1-yl}benzoate], the IC50 stood at 0.504 µM. Regarding `COC(=O)CCC/C=C(/c1ccc(OC)c(OC)c1)c1cc(C)c(OC)c(C(=O)OC)c1` [Methyl (5Z)-6-(3,4-dimethoxyphenyl)-6-[4-methoxy-3-(methoxycarbonyl)-5-methylphenyl]hex-5-enoate], the IC50 amounted to 0.074 µM.

`COC(=O)CCCCC(=O)c1cc(C)c(OC)c(C(=O)OC)c1` [Methyl 6-[4-methoxy-5-(methoxycarbonyl)-3-methylphenyl]-6-oxohexanoate]: half-maximal inhibition (IC50) was put at 100 µM.

Take `COC(=O)CCC/C=C/c1cc(C)c(OC)c(C(=O)OC)c1` [methyl 2-methoxy-5-[(1E)-6-methoxy-6-oxohex-1-en-1-yl]-3-methylbenzoate]: the IC50 amounted to 100 µM. Consider `COC(=O)CCCC=C(c1ccc(OC)c(Cl)c1)c1ccc(OC)c(Cl)c1` [Alkenyldiarylmethane (ADAM) 9b], for which the IC50 was determined as 100 µM. `COC(=O)CCCCCc1cc(C)c(OC)c(C(=O)OC)c1` [Methyl 6-[4-methoxy-5-(methoxycarbonyl)-3-methylphenyl]hexanoate] registered an IC50 of 1.75 µM. `COC(=O)CCC/C=C(/c1ccc(OC)c(C(=O)OC)c1)c1cc(Cl)c(OC)c(C(=O)OC)c1` [Alkenyldiarylmethane (ADAM) 5b]: the IC50 came to 0.587 µM. `COC(=O)CCCC#Cc1cc(C)c(OC)c(C(=O)OC)c1` [methyl 2-methoxy-5-(6-methoxy-6-oxohex-1-yn-1-yl)-3-methylbenzoate] showed a concentration for half-maximal inhibition (IC50) of 100 µM.

The molecule `COC(=O)CCC/C=C(/c1cc(C)c(OC)c(C(=O)OC)c1)c1cc(Cl)c(OC)c(C(=O)OC)c1` [Alkenyldiarylmethane (ADAM) 4b] gave an IC50 of 0.516 µM. In turn, `COC(=O)CCC/C=C\c1cc(C)c(OC)c(C(=O)OC)c1` [Alkenyldiarylmethane (ADAM) 10b] yielded an IC50 of 88.2 µM.

`COC(=O)CCC/C=C(/c1ccc(OC)c(OC)c1)c1cnccn1` [methyl (5Z)-6-(3,4-dimethoxyphenyl)-6-(pyrazin-2-yl)hex-5-enoate] gave an IC50 of 100 µM. The molecule `COC(=O)CCC/C(=C\c1ccc(OC)c(Cl)c1)c1ccc(OC)c(Cl)c1` [methyl (5E)-5,6-bis(3-chloro-4-methoxyphenyl)hex-5-enoate] had an IC50 of 100 µM.
